# In US9556180B2, “Pyrazolo[3,4-d]pyrimidinone compounds as inhibitors of the P53/MDM2 interaction” (Novartis AG, priority 2013, dated 2017):
# Experiments:
# Format in all cases: binding
# [1] = biological target: T1, p53-MDM2 interaction (human MDM2 protein, amino acids 2-188) (Homo sapiens, UniProt Q00987); experiment: p53-MDM2 Assay 1: TR-FRET inhibition of p53-MDM2 interaction; settings: 1.25 nM MDM2-biotinylated, 10 nM Cy5-p53 peptide
# T1 construct: human MDM2 protein (amino acids 2-188); made in house
# T1 sequence (Q00987 2-188): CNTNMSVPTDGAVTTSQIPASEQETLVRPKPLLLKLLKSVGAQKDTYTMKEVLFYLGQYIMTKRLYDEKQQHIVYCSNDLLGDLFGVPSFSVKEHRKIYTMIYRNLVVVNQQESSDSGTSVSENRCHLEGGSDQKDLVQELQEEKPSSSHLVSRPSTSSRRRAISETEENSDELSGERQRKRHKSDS
# Description: (§1) Time Resolved Fluorescence Energy Transfer (TR-FRET) Assay
# (§2) The inhibition of p53-MDM2 and p53-MDM4 interactions is measured by time resolved fluorescence energy transfer (TR-FRET). Fluorescence energy transfer (or Foerster resonance energy transfer) describes an energy transfer between donor and acceptor fluorescent molecules. For this assay, human MDM2 protein (amino acids 2-188) and human MDM4 protein (amino acids 2-185), tagged with a C-terminal biotin moiety, are used in combination with a Europium labeled streptavidin (Perkin Elmer, Inc., Waltham, Mass., USA) serving as the donor fluorophore. The p53 derived, Cy5 labeled peptide Cy5-TFSDLWKLL (p53 aa18-26) is the energy acceptor. Upon excitation of the donor molecule at 340 nm, binding interaction between MDM2 or MDM4 and the p53 peptide induces energy transfer and enhanced response at the acceptor emission wavelength at 665 nm. Disruption of the formation of the p53-MDM2 or p53-MDM4 complex due to an inhibitor molecule binding to the p53 binding site of MDM2 or MDM4 results in increased donor emission at 620 nm. The ratiometric FRET assay readout is calculated from the raw data of the two distinct fluorescence signals measured in time resolved mode (fluorescence 665 nm/fluorescence 620 nm×1000).
# (§3) After addition of 1.25 nM MDM2-biotinylated or 2.5 nM MDM4-biotinylated (internal preparations, both MDM2 and MDM4 are biotinylated at the C-terminal of the peptide construct), and 0.625 nM Europium labeled streptavidin (Perkin Elmer), the solution is pre-incubated for 15 minutes at room temperature, then 10 nM Cy5-p53 peptide (internal preparation, the Cy5 dye is directly bound to the N-terminal part of p53 peptide construct) is added before an incubation at room temperature for 15 minutes prior to reading the plate. For measurement of samples, a Victor II microplate reader (Perkin Elmer) is used with the following settings: Excitation 340 nm, Emission Donor 620 nm and Emission Acceptor 665 nm. IC50 values are calculated by curve fitting using XLfit. If not specified, reagents are purchased from Sigma-Aldrich Chemie GmBH, Buchs, Switzerland.
# (§4) This assay was used to evaluate compounds displaying inhibition of p53-MDM2 interaction and p53-MDM4 interaction at IC50s of 0.005 to 50 μM (p53-MDM2 Assay 1 and p53-MDM4 Assay 1, respectively). For selected compounds displaying IC50s between […] on MDM2, a slightly modified assay is used with the following adaptations: 0.1 nM MDM2, 0.1 nM Europium labeled streptavidin and Tecan genios Pro is used as a microplate reader for the fluorescence measurements (p53-MDM2 Assay 2).
# [2] = biological target: T2, p53-MDM4 interaction (human MDM4 protein, amino acids 2-185) (Homo sapiens, UniProt O15151); experiment: p53-MDM4 Assay 1: TR-FRET inhibition of p53-MDM4 interaction; settings: 2.5 nM MDM4-biotinylated, 10 nM Cy5-p53 peptide
# T2 construct: human MDM4 protein (amino acids 2-185); made in house
# T2 sequence (O15151 2-185): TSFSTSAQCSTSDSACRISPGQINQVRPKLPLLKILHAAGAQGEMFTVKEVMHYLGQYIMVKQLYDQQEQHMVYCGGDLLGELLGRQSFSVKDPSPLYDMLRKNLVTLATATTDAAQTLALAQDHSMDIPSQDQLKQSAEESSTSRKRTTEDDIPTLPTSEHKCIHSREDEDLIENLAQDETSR
# Description: as §1, §2, §3, §4
# [3] = biological target: T1, p53-MDM2 interaction (human MDM2 protein, amino acids 2-188); experiment: p53-MDM2 Assay 2: slightly modified TR-FRET assay; settings: 0.1 nM MDM2, 0.1 nM Europium labeled streptavidin, Tecan genios Pro reader
# Description: as §1, §2, §3, §4
IC50 [1],IC50 [2],IC50 [3],Compound
1.8 nM,18500 nM,,"Cc1cc(Cl)ccc1[C@H]1c2c(nn(Cc3ccccc3)c2C(C)C)NC(=O)N1c1cccc(Cl)c1F [Example 2, (S)-2-Benzyl-5-(3-chloro-2-fluorophenyl)-4-(4-chloro-2-methylphenyl)-3-isopropyl-4,5-dihydro-2H-pyrazolo[3,4-d]pyrimidin-6(7H)-one]"
1.8 nM,34700 nM,,"Cc1cc(Cl)ccc1C1c2c(nn(Cc3ccccc3)c2C(C)C)NC(=O)N1c1cccc(Cl)c1F (stereo not shown) [Example 1, 2-Benzyl-5-(3-chloro-2-fluoro-phenyl)-4-(4-chloro-2-methyl-phenyl)-3-isopropyl-2,4,5,7-tetrahydro-pyrazolo[3,4-d]pyrimidin-6-one]"
,,0.14 nM,"COc1ccc(C#N)cc1-n1nc2c(c1C(C)C)C(c1ccc(Cl)cc1C)N(c1cc(Cl)c(=O)n(C)c1)C(=O)N2 (stereo not shown) [Example 24, 3-(5-(5-Chloro-1-methyl-6-oxo-1,6-dihydropyridin-3-yl)-4-(4-chloro-2-methylphenyl)-3-isopropyl-6-oxo-4,5,6,7-tetrahydro-2H-pyrazolo[3,4-d]pyrimidin-2-yl)-4-methoxybenzonitrile]"
16.7 nM,41700 nM,,"Cc1cc(Cl)ccc1C1c2c(nn(CCN(C)C)c2C(C)C)NC(=O)N1c1cccc(Cl)c1F (stereo not shown) [Example 9, 5-(3-chloro-2-fluoro-phenyl)-4-(4-chloro-2-methyl-phenyl)-2-(2-dimethylamino-ethyl)-3-isopropyl-2,4,5,7-tetrahydro-pyrazolo[3,4-d]pyrimidin-6-one]"
,,0.11 nM,"COc1ccc(CNC=O)cc1-n1nc2c(c1C(C)C)C(c1ccc(Cl)cc1C)N(c1cc(Cl)ccc1C)C(=O)N2 (stereo not shown) [Example 27, N-(3-(4-(4-Chloro-2-methylphenyl)-5-(5-chloro-2-methylphenyl)-3-isopropyl-6-oxo-4,5,6,7-tetrahydro-2H-pyrazolo[3,4-d]pyrimidin-2-yl)-4-methoxybenzyl)formamide]"
,,0.12 nM,"COc1ccc(CN)cc1-n1nc2c(c1C(C)C)C(c1ccc(Cl)cc1C)N(c1cc(Cl)ccc1C)C(=O)N2 (stereo not shown) [Example 25, 2-(5-(Aminomethyl)-2-methoxyphenyl)-4-(4-chloro-2-methylphenyl)-5-(5-chloro-2-methylphenyl)-3-isopropyl-4,5-dihydro-2H-pyrazolo[3,4-d]pyrimidin-6(7H)-one]"
,,0.18 nM,"COc1ccc(CN)cc1-n1nc2c(c1C(C)C)C(c1ccc(Cl)cc1C)N(c1cc(Cl)c(=O)n(C)c1)C(=O)N2 (stereo not shown) [Example 29, 2-(5-(Aminomethyl)-2-methoxyphenyl)-5-(5-chloro-1-methyl-6-oxo-1,6-dihydropyridin-3-yl)-4-(4-chloro-2-methylphenyl)-3-isopropyl-4,5-dihydro-2H-pyrazolo[3,4-d]pyrimidin-6(7H)-one]"
,,0.24 nM,"COc1ccc(C(N)=O)cc1-n1nc2c(c1C(C)C)C(c1ccc(Cl)cc1C)N(c1cc(Cl)ccc1C)C(=O)N2 (stereo not shown) [Example 28, 3-(4-(4-Chloro-2-methylphenyl)-5-(5-chloro-2-methylphenyl)-3-isopropyl-6-oxo-4,5,6,7-tetrahydro-2H-pyrazolo[3,4-d]pyrimidin-2-yl)-4-methoxybenzamide]"
2.5 nM,2360 nM,,"COc1ccccc1-n1nc2c(c1C(C)C)C(c1ccc(Cl)cc1C)N(c1cc(Cl)ccc1OCCN(C)C)C(=O)N2 (stereo not shown) [Example 12, 5-[5-Chloro-2-(2-dimethylamino-ethoxy)-phenyl]-4-(4-chloro-2-methyl-phenyl)-3-isopropyl-2-(2-methoxy-phenyl)-2,4,5,7-tetrahydro-pyrazolo[3,4-d]pyrimidin-6-one]"
5.6 nM,8570 nM,,"COCCn1cc(N2C(=O)Nc3nn(-c4ccccc4OC)c(C(C)C)c3C2c2ccc(Cl)cc2)cc(Cl)c1=O (stereo not shown) [Example 16, 5-[5-Chloro-1-(2-methoxy-ethyl)-6-oxo-1,6-dihydro-pyridin-3-yl]-4-(4-chloro-phenyl)-3-isopropyl-2-(2-methoxy-phenyl)-2,4,5,7-tetrahydro-pyrazolo[3,4-d]pyrimidin-6-one]"
6.6 nM,11600 nM,,"COc1ccccc1-n1nc2c(c1C(C)C)C(c1ccc(Cl)cc1)N(c1cc(Cl)ccc1OCCN(C)C)C(=O)N2 (stereo not shown) [Example 17, 5-(5-Chloro-2-(3-(dimethylamino)ethoxy)phenyl)-4-(4-chlorophenyl)-3-isopropyl-2-(2-methoxyphenyl)-4,5-dihydro-2H-pyrazolo[3,4-d]pyrimidin-6(7H)-one]"
62.2 nM,19100 nM,,"COc1ccccc1-n1nc2c(c1C(C)C)[C@@H](c1ccc(Cl)cc1C)N(c1cccc(Cl)c1F)C(=O)N2 [Example 7, (R)-5-(3-Chloro-2-fluoro-phenyl)-4-(4-chloro-2-methyl-phenyl)-3-isopropyl-2-(2-methoxy-phenyl)-2,4,5,7-tetrahydro-pyrazolo[3,4-d]pyrimidin-6-one]"
,,0.13 nM,"COc1ccc(CNC(C)=O)cc1-n1nc2c(c1C(C)C)C(c1ccc(Cl)cc1C)N(c1cc(Cl)ccc1C)C(=O)N2 (stereo not shown) [Example 26, N-(3-(4-(4-Chloro-2-methylphenyl)-5-(5-chloro-2-methylphenyl)-3-isopropyl-6-oxo-4,5,6,7-tetrahydro-2H-pyrazolo[3,4-d]pyrimidin-2-yl)-4-methoxybenzyl)acetamide]"
,,0.21 nM,"COc1ccc(CNC(C)=O)cc1-n1nc2c(c1C(C)C)C(c1ccc(Cl)cc1C)N(c1cc(Cl)c(=O)n(C)c1)C(=O)N2 (stereo not shown) [Example 30, N-(3-(5-(5-Chloro-1-methyl-6-oxo-1,6-dihydropyridin-3-yl)-4-(4-chloro-2-methylphenyl)-3-isopropyl-6-oxo-4,5,6,7-tetrahydro-2H-pyrazolo[3,4-d]pyrimidin-2-yl)-4-methoxybenzyl)acetamide]"
,,0.21 nM,"COc1ncc(-n2nc3c(c2C(C)C)C(c2ccc(Cl)cc2C)N(c2cc(Cl)cn(C)c2=O)C(=O)N3)c(OC)n1 (stereo not shown) [Example 32, 5-(5-Chloro-1-methyl-2-oxo-1,2-dihydropyridin-3-yl)-4-(4-chloro-2-methylphenyl)-2-(2,4-dimethoxypyrimidin-5-yl)-3-isopropyl-4,5-dihydro-2H-pyrazolo[3,4-d]pyrimidin-6(7H)-one]"
4.8 nM,4730 nM,,"COc1ccccc1-n1nc2c(c1C(C)C)C(c1ccc(Cl)cc1)N(c1ccc(=O)n(C)c1)C(=O)N2 (stereo not shown) [Example 20, 4-(4-Chloro-phenyl)-3-isopropyl-2-(2-methoxy-phenyl)-5-(1-methyl-6-oxo-1,6-dihydro-pyridin-3-yl)-2,4,5,7-tetrahydro-pyrazolo[3,4-d]pyrimidin-6-one]"
,,0.29 nM,"COc1ncc(-n2nc3c(c2C(C)C)C(c2ccc(Cl)cc2C)N(c2cc(Cl)c(=O)n(C)c2)C(=O)N3)c(OC)n1 (stereo not shown) [Example 31, 5-(5-Chloro-1-methyl-6-oxo-1,6-dihydropyridin-3-yl)-4-(4-chloro-2-methylphenyl)-2-(2,4-dimethoxypyrimidin-5-yl)-3-isopropyl-4,5-dihydro-2H-pyrazolo[3,4-d]pyrimidin-6(7H)-one]"
146 nM,39700 nM,,"Cc1cc(Cl)ccc1[C@@H]1c2c(nn(Cc3ccccc3)c2C(C)C)NC(=O)N1c1cccc(Cl)c1F [Example 3, (R)-2-Benzyl-5-(3-chloro-2-fluorophenyl)-4-(4-chloro-2-methylphenyl)-3-isopropyl-4,5-dihydro-2H-pyrazolo[3,4-d]pyrimidin-6(7H)-one]"
,,0.15 nM,"COc1ccc(C#N)cc1-n1nc2c(c1C(C)C)C(c1ccc(Cl)cc1C)N(c1cc(Cl)ccc1C)C(=O)N2 (stereo not shown) [Example 23, 3-(4-(4-Chloro-2-methylphenyl)-5-(5-chloro-2-methylphenyl)-3-isopropyl-6-oxo-4,5,6,7-tetrahydro-2H-pyrazolo[3,4-d]pyrimidin-2-yl)-4-methoxybenzonitrile]"
